The term IC50 denotes the concentration at which inhibition is half-maximal. Read a low IC50 as greater potency.

What all share (assay type): cell-based
The subject of one test is Panc-1 cells. Kind of test: Cell proliferation (culture confluency, IncuCyte) in 2D culture, Panc-1. As to conditions: 100 µM, confluence by live cell imaging. How it is done: (§1) Cell lines Panc-1 (ACC 783) and Colo-357 (CVCL_0221) were obtained through the validated collection of the pHioniC consortium (MSC-ITN 813834). Both cell lines were grown in RPMI1640, supplemented with 1 mM sodium pyruvate and 1% Glutamax (all Gibco Thermo-Fisher, Waltham, MA USA) 10%FBS (BioChrom, Berlin, Germany), at 5% CO2 and 37 °C in a humidified atmosphere.
(§2) For cell proliferation assays, cells were seeded at a density of 10,000 cells/well in 96-well flat bottom culture plates (Corning, Kaiseslautern, Germany) and proliferation was measured through culture confluency using an IncuCyte device (Sartorius, Göttingen, Germany). Every hour, two phase contrast images per well were acquired, and a confluency mask was generated by training the analysis algorithm using representative images. Every image was then analyzed using the obtained parameters to determine culture confluency. Treatments were then added when cells reached a confluency of ~30% (Panc-1) or ~55% (Colo-357), and proliferation was determined for the following 60 h. Proliferation is reported as confluency increase with respect to the start of the treatment.

The next test has as its target KV1.2 (Homo sapiens, UniProt P16389). Put plainly: Selectivity, HiClamp Xenopus laevis heterologous expression system, KV1.2. To be noted: for IC50: HiClamp, oocytes, NA = no significant inhibition, no IC50 determined; for Effect on KV1.2 channel: at a concentration of the compound's IC50 value for KV1.3. As to the method:
(§3) Ion channels (Kv1.x, Kv2.1, Kv4.2, Kv10.1) were expressed in Xenopus laevis oocytes by linearization of the plasmids and subsequent in vitro transcription using a commercial T7 or SP6 mMESSAGE mMACHINE transcription kit (Ambion, Carlsbad, California, USA). Defolliculated Xenopus oocytes were then injected with 20–50 nL of the cRNA at a concentration of 1 ng/nL using a micro-injector (Drummond Scientific1, Broomall, PA, USA). The oocytes were incubated in a solution containing (in mM): NaCl, 96; KCl, 2; CaCl2, 1.8; MgCl2, 2 and HEPES, 5 (pH 7.5), supplemented with 50 mg/L gentamycin sulfate and 90 mg/L theophylline. After ex vivo translation, the ion channels were correctly inserted in the cell membrane of the oocytes.
(§4) Two-electrode voltage-clamp recordings were performed at room temperature (18–22 °C) using a Geneclamp 500 amplifier (Molecular Devices, San Jose, CA, USA) and pClamp data acquisition (Axon Instruments, Union City, CA, USA) and using an integrated digital TEVC amplifier controlled by HiClamp, an automated Voltage-Clamp Screening System (Multi Channel Systems MCS GmbH, Reutlingen, Germany). Whole-cell currents from oocytes were recorded 1–4 days after injection. The bath solution composition was ND96 (in mM): NaCl, 96; KCl, 2; CaCl2, 1.8; MgCl2, 2 and HEPES, 5 (pH 7.5). Voltage and current electrodes were filled with a 3 M solution of KCl in H2O. Resistances of both electrodes were kept between 0.5 and 1.5 MΩ. The elicited Kv1.x, Kv2.1, Kv4.2 and Kv10.1 currents were filtered at 0.5 kHz and sampled at 2 kHz using a four-pole low-pass Bessel filter. Leak subtraction was performed using a P/4 protocol.
(§5) For the electrophysiological analysis of the compounds, a number of protocols were applied from a holding potential of −90 mV. Currents for Kv1.x, Kv2.1, Kv4.2 and Kv10.1 were evoked by 1 s depolarizing pulses either to 0 mV or to a range of voltage steps between −80 mV and +40 mV. For the analysis of the data, only the inhibition at the 0 mV step was used. The concentration dependency of all compounds was assessed by measuring the current inhibition in the presence of increasing compound concentrations. […] From this stock solution, adequate dilutions with a maximum of 0.5% DMSO were made for testing.
(§6) All electrophysiological data (Figure S1) are presented as means ± S.E.M of n ≥ three independent experiments unless otherwise indicated. All data were analyzed using pClamp Clampfit 10.4 (Molecular Devices, Downingtown, PA, USA), OriginPro 9 (Originlab, Northampton, MA, USA), GraphPad Prism 8 software (GraphPad Software, Inc., San Diego, CA, USA) and DataMining (Multi Channel Systems MCS GmbH, Reutlingen, Germany). The Dunnett test and one-way ANOVA were performed to calculate the significance of the induced inhibition compared to the control.

For another test, the system named is Colo-357 cells. Kind of test: Cell proliferation (culture confluency, IncuCyte) in 2D culture, Colo-357. To be noted: 100 µM, confluence by live cell imaging. How it is done: as §1, §2
Another test addresses KV1.1 (Rattus norvegicus, UniProt P10499). Put plainly: Selectivity, HiClamp Xenopus laevis heterologous expression system, KV1.1. To be noted: at a concentration of the compound's IC50 value for KV1.3. How it is done:
as §3, §4, §5, §6

In a further test the test system is Panc-1 tumor spheroids. Put plainly: Apoptosis (caspase 3/7 activity) in Panc-1 tumor spheroids. As to conditions: with 8.9 µM cycloheximide. As to the method:
as §1
Spheroids were cultured in round bottom ultra-low attachment 96-well plates (Corning). The optimal seeding densities were empirically determined (8000 cells/well for Colo-357 or 10,000 cells/well for Panc-1 spheroids. The cells were suspended in 2% Matrigel (Corning), centrifuged at 1000× g for 10 min and the spheroids were allowed to form in the incubator. Once the spheroids were formed, the treatments indicated together with 8.9 µM cycloheximide (as apoptosis sensitizer) were added and apoptosis was determined by live imaging in the Incucyte system in real time for approximately 60 h using Caspase-3/7 green reagent (Sartorius) as a reporter of apoptosis, which crosses the cell membrane and is cleaved by the activated Caspase-3/7, resulting in the fluorescent staining of nuclear DNA. Apoptosis on Panc-1 tumor spheroids is presented as integrated green fluorescence in the whole spheroid.

Another test addresses KV1.6 (Homo sapiens, UniProt P17658). Kind of test: Selectivity, HiClamp Xenopus laevis heterologous expression system, KV1.6. To be noted: for IC50: HiClamp, oocytes, NA = no significant inhibition, no IC50 determined; for Effect on KV1.6 channel: at a concentration of the compound's IC50 value for KV1.3. How it is done:
as §3, §4, §5, §6

“Also recorded” adds a separate entry of the source.

KV1.6, sequence (P17658 whole entry): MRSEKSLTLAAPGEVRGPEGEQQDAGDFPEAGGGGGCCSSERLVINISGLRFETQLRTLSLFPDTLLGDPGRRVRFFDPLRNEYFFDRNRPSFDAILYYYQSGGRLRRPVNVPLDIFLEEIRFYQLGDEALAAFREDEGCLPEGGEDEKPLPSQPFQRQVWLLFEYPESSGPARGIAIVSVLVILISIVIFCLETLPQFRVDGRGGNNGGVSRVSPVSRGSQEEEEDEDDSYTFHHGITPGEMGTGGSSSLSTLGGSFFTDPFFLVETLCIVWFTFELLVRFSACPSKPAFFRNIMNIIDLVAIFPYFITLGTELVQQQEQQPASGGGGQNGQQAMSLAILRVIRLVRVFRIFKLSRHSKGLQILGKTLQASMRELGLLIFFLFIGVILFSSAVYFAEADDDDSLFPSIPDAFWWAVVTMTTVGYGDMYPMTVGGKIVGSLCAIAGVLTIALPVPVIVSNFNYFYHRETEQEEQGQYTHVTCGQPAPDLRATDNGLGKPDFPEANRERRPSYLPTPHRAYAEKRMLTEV
KV1.1, sequence (P10499 whole entry): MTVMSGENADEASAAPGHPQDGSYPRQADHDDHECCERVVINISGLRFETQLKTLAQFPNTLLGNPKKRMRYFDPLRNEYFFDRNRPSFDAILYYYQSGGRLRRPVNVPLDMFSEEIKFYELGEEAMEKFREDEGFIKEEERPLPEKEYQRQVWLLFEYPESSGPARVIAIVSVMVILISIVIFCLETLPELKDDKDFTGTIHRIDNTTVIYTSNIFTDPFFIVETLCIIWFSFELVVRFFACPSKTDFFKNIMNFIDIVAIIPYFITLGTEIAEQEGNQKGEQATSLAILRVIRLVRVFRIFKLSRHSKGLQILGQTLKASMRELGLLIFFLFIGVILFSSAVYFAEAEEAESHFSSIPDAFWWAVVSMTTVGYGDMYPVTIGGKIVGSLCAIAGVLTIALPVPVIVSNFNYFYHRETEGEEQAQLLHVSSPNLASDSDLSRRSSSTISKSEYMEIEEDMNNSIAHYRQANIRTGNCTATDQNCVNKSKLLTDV
KV1.2, sequence (P16389 whole entry): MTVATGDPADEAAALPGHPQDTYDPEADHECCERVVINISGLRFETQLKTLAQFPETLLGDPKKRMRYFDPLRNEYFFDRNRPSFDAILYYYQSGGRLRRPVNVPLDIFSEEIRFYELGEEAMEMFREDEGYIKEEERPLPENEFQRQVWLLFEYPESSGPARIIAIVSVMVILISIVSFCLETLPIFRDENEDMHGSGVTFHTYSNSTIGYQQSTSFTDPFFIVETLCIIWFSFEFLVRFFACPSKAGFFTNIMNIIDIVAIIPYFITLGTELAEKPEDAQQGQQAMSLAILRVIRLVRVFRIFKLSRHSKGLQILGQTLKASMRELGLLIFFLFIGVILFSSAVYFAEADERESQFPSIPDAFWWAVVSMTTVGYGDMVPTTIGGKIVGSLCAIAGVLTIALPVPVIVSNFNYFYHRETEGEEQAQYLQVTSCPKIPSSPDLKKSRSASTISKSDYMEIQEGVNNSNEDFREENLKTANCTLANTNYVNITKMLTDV

Consider `COc1ccccc1C(=O)NCC1(c2cccs2)CCOC1` (stereo not drawn) [Compound 14], for which the “Growth (proliferation) inhibition of Panc-1 cells” value (from here on “Growth (proliferation) inhibition”) in the test on Panc-1 cells was “significantly inhibited; also recorded: strong inhibition”. In addition, at KV1.2, the midpoint of inhibition, the IC50, lay at 4000 ± 200 nM and the “Effect on KV1.2 channel” value was “significant effects”. Besides, the “Growth of Colo-357 cells” value in the test with Colo-357 cells was “not significantly affected; also recorded: unaffected”. Further, the “Effect on KV1.1 channel” value on KV1.1 is listed as “significant effects”. Also, the “Induction of apoptosis in Panc-1 spheroids” value (“Induction of apoptosis” for short) with Panc-1 tumor spheroids is “did not induce detectable levels of apoptosis”. Besides, on KV1.6, inhibition was half-maximal at 430 ± 20 nM (IC50) and the “Effect on KV1.6 channel” value was “significant effects”.

`COc1ccc(F)cc1C(=O)NCC1(c2ccccc2)CCOCC1` [Compound 37]: the “Growth (proliferation) inhibition” value in the test on Panc-1 cells is “significantly inhibited; also recorded: strong inhibition”. For the same compound, at KV1.2, the concentration for half-maximal inhibition (IC50) was 2340 ± 260 nM and the “Effect on KV1.2 channel” value is recorded as “significantly inhibited”. Moreover, the “Growth of Colo-357 cells” value in the test on Colo-357 cells was “not significantly affected; also recorded: unaffected”. Besides, the “Effect on KV1.1 channel” value on KV1.1 is listed as “significantly inhibited”. The “Induction of apoptosis” value with Panc-1 tumor spheroids is recorded as “did not induce detectable levels of apoptosis”. For the same compound, at KV1.6, the half-inhibitory concentration (IC50) was 4330 ± 1210 nM and the “Effect on KV1.6 channel” value was “significantly inhibited”.

For the compound `COc1ccccc1C(=O)NCC1(c2cccs2)CCOCC1` [Compound 43], in the test on Panc-1 cells, the “Growth (proliferation) inhibition” value is listed as “significantly inhibited; also recorded: strong inhibition”. Besides, at KV1.2, inhibition was half-maximal at 2760 ± 560 nM (IC50) and the “Effect on KV1.2 channel” value is listed as “significant effects”. Further, the “Growth of Colo-357 cells” value in the test on Colo-357 cells is “not significantly affected; also recorded: unaffected”. Besides, the “Effect on KV1.1 channel” value on KV1.1 is “significant effects”. Also, the “Induction of apoptosis” value in the test on Panc-1 tumor spheroids is recorded as “did not induce detectable levels of apoptosis”. In addition, at KV1.6, 830 ± 10 nM corresponded to half-maximal inhibition (IC50) and the “Effect on KV1.6 channel” value is given as “significant effects”.

`COc1ccccc1C(=O)NCC1(c2ccsc2)CCOCC1` [Compound 44]: the “Growth (proliferation) inhibition” value in the test with Panc-1 cells is given as “significantly inhibited; also recorded: moderate growth inhibition”. The “Effect on KV1.2 channel” value on KV1.2 is given as “no significant effects”. The “Growth of Colo-357 cells” value with Colo-357 cells is reported as “not significantly affected; also recorded: unaffected”. In addition, the “Effect on KV1.1 channel” value at KV1.1 is given as “no significant effects”. In addition, in the test on Panc-1 tumor spheroids, the “Induction of apoptosis” value is recorded as “did not induce detectable levels of apoptosis”. In addition, at KV1.6, the “Effect on KV1.6 channel” value is “no significant effects”.

The values above are taken from publication PMC9179341, “Design of New Potent and Selective Thiophene-Based KV1.3 Inhibitors and Their Potential for Anticancer Activity” (Cancers, 2022).
